One data set is filed under the species Rattus norvegicus. The experiment in a line: Relative potency with reference to quinidine.
Conditions: not given
In kind it is functional.
`C/C=C/c1ccc(OC(C)C(=O)NCCCNC(=O)C2=CC(C)(C)NC2(C)C)c(OC)c1` (configuration not stated) showed a Relative potency of 4.4.
Same read-out and setting: for `C=CCc1cc(C)ccc1OCC(=O)NCCCNC(=O)C1=CC(C)(C)NC1(C)C` the value was 4.9; for `CC1(C)C=C(C(=O)NCCCNC(=O)COc2ccccc2)C(C)(C)N1`, 4.6.
With `COc1cc(CNCCCNC(=O)C2=CC(C)(C)NC2(C)C)ccc1O`, the Relative potency stood at 25.3.
`COc1ccccc1CNCCCNC(=O)C1=CC(C)(C)NC1(C)C.Cl` displayed a Relative potency of 7.4.
In turn, `CC1(C)C=C(C(=O)NCCCNCc2ccc(Oc3ccccc3)cc2)C(C)(C)N1` gave a Relative potency of 9.2.
Compound `C=CCc1ccc(OC(C)C(=O)NCCNC(=O)C2=CC(C)(C)NC2(C)C)c(OC)c1` (configuration not stated) yielded a Relative potency of 4.3.
As for `C=CCc1ccc(OCC(=O)NCCNC(=O)C2=CC(C)(C)NC2(C)C)c(OC)c1`, the Relative potency is on record as 1.9.
On to `C/C=C/c1ccc(OCC(=O)NCCNC(=O)C2=CC(C)(C)NC2(C)C)c(OC)c1`, for which the Relative potency amounted to 2.9.
With `CC1(C)C=C(C(=O)NCC(O)CNC(=O)c2cccs2)C(C)(C)N1` (configuration not stated), the Relative potency worked out at 1.77.
The same measure, in the same setting: for `C=CCOc1ccccc1CNCCCNC(=O)C1CC(C)(C)NC1(C)C` (configuration not stated) the value was 5.7; for `C/C=C/c1ccc(OCC(=O)NCC(C)(C)CNC(=O)C2=CC(C)(C)NC2(C)C)c(OC)c1`, 3.1.
Still for that read-out and setting: for `C=CCOc1ccc(CNCCCNC(=O)C2=CC(C)(C)NC2(C)C)cc1` the value was 4.1; for `CC1(C)C=C(C(=O)NCCCNCc2ccc(C(F)(F)F)cc2)C(C)(C)N1`, 2.5.
The compound `COc1cccc(CNCCCNC(=O)C2=CC(C)(C)NC2(C)C)c1O` registered a Relative potency of 3.5.
Regarding `CC1(C)C=C(C(=O)NCCCNCc2cccc(OCc3ccccc3)c2)C(C)(C)N1`, the Relative potency is recorded as 16.1.
The compound `Cc1cccc(C)c1NC(=O)C(C)NCCCNC(=O)C1=CC(C)(C)NC1(C)C` (configuration not stated) gave a Relative potency of 9.1.
Regarding `COc1cccc(CNCCCNC(=O)C2=CC(C)(C)NC2(C)C)c1OCc1ccccc1`, the Relative potency is 56.7.

Test system in another data set: not listed separately
As to the kind of experiment: Acute toxicity determined after intravenal administration in mice. The data set is classed as organism-based. Conditions: mouse, in vivo, iv.
Regarding `C=CCc1cc(C)ccc1OCC(=O)NCCNC(=O)C1=CC(C)(C)NC1(C)C`, the LD50 came out at 19 mg/kg.
In the case of `C/C=C/c1ccc(OC(C)C(=O)NCCCNC(=O)C2=CC(C)(C)NC2(C)C)c(OC)c1` (configuration not stated), the 50% lethal dose (LD50) amounted to 14 mg/kg.
The compound `CC1(C)C=C(C(=O)NCCCNC(=O)COc2ccccc2)C(C)(C)N1` registered an LD50 of 49 mg/kg. This LD50 is about 3.5-fold higher than that of the compound before.
On to `COc1cc(CNCCCNC(=O)C2=CC(C)(C)NC2(C)C)ccc1O`, for which the LD50 amounted to 8.7 mg/kg.
Consider `COc1ccccc1CNCCCNC(=O)C1=CC(C)(C)NC1(C)C.Cl`, for which the LD50 was found to be 7.9 mg/kg.
`CC1(C)C=C(C(=O)NCCCNCc2ccc(Oc3ccccc3)cc2)C(C)(C)N1` yielded an LD50 of 23 mg/kg.
Still for that read-out and setting: in the case of `C=CCc1ccc(OC(C)C(=O)NCCNC(=O)C2=CC(C)(C)NC2(C)C)c(OC)c1` (configuration not stated) it was 9.3 mg/kg; in that of `C=CCc1ccc(OCC(=O)NCCNC(=O)C2=CC(C)(C)NC2(C)C)c(OC)c1`, 11 mg/kg; in that of `C/C=C/c1ccc(OCC(=O)NCCNC(=O)C2=CC(C)(C)NC2(C)C)c(OC)c1`, 18 mg/kg.
With `CC1(C)C=C(C(=O)NCCCNCc2ccccc2OCC(N)=O)C(C)(C)N1`, the 50% lethal dose (LD50) is 10 mg/kg.
Compound `CC1(C)C=C(C(=O)NCC(O)CNC(=O)c2cccs2)C(C)(C)N1` (configuration not stated) had an LD50 of 65 mg/kg.
The compound `C=CCOc1ccccc1CNCCCNC(=O)C1CC(C)(C)NC1(C)C` (configuration not stated) returned an LD50 of 13 mg/kg.
For the compound `C/C=C/c1ccc(OCC(=O)NCC(C)(C)CNC(=O)C2=CC(C)(C)NC2(C)C)c(OC)c1`, the 50% lethal dose (LD50) is 31 mg/kg.
The same measure, in the same setting: in the case of `C=CCOc1ccc(CNCCCNC(=O)C2=CC(C)(C)NC2(C)C)cc1` it was 28 mg/kg.
Take `CC1(C)C=C(C(=O)NCCCNCc2ccc(C(F)(F)F)cc2)C(C)(C)N1`: the median lethal dose (LD50) turned out to be 65 mg/kg.
`COc1cccc(CNCCCNC(=O)C2=CC(C)(C)NC2(C)C)c1O`: the LD50 came to 26 mg/kg.
Compound `CC1(C)C=C(C(=O)NCCCNCc2cccc(OCc3ccccc3)c2)C(C)(C)N1` returned an LD50 of 7 mg/kg. Compared with the last compound, the LD50 is about 3.7-fold lower.
The same measure, in the same setting: for `Cc1cccc(C)c1NC(=O)C(C)NCCCNC(=O)C1=CC(C)(C)NC1(C)C` (configuration not stated) the value was 26 mg/kg.
Turning to `COc1cccc(CNCCCNC(=O)C2=CC(C)(C)NC2(C)C)c1OCc1ccccc1`, the median lethal dose (LD50) was determined as 6.2 mg/kg.

Another data set concerns Rattus norvegicus. The experiment in a line: Incidence of arrhythmias in rats after a intravenal administration at 4 mg/kg, expressed as no. of positive cases out of no. of tested cases (10). In kind it is functional.
Conditions: not given
On to `C/C=C/c1ccc(OC(C)C(=O)NCCCNC(=O)C2=CC(C)(C)NC2(C)C)c(OC)c1` (configuration not stated), for which the “No. of positive cases” value is listed as 7.
For `CC1(C)C=C(C(=O)NCCCNC(=O)COc2ccccc2)C(C)(C)N1`, the “No. of positive cases” value is 10.
On the same count and under the same terms, for `COc1ccccc1CNCCCNC(=O)C1=CC(C)(C)NC1(C)C.Cl` the value was 10; for `CC1(C)C=C(C(=O)NCCCNCc2ccc(Oc3ccccc3)cc2)C(C)(C)N1`, 10; for `C=CCc1ccc(OCC(=O)NCCNC(=O)C2=CC(C)(C)NC2(C)C)c(OC)c1`, 7.
On the same count and under the same terms, in the case of `C/C=C/c1ccc(OCC(=O)NCCNC(=O)C2=CC(C)(C)NC2(C)C)c(OC)c1` it was 7; in that of `CC1(C)C=C(C(=O)NCC(O)CNC(=O)c2cccs2)C(C)(C)N1` (configuration not stated), 7; in that of `C/C=C/c1ccc(OCC(=O)NCC(C)(C)CNC(=O)C2=CC(C)(C)NC2(C)C)c(OC)c1`, 6.
On the same count and under the same terms, for `C=CCOc1ccc(CNCCCNC(=O)C2=CC(C)(C)NC2(C)C)cc1` the value was 6; for `CC1(C)C=C(C(=O)NCCCNCc2ccc(C(F)(F)F)cc2)C(C)(C)N1`, 7.
`COc1cccc(CNCCCNC(=O)C2=CC(C)(C)NC2(C)C)c1O`: the “No. of positive cases” value is given as 10.
As to `Cc1cccc(C)c1NC(=O)C(C)NCCCNC(=O)C1=CC(C)(C)NC1(C)C` (configuration not stated), the “No. of positive cases” value came to 10.
As to `COc1cccc(CNCCCNC(=O)C2=CC(C)(C)NC2(C)C)c1OCc1ccccc1`, the “No. of positive cases” value is reported as 10.

In another data set the test system is Rattus norvegicus. The experiment in a line: Effective dose against aconitine-induced arrhythmia after intravenal administration in anesthetized rats. In kind it is functional.
Conditions: not given
In the case of `CC1(C)C=C(C(=O)NCCCNC(=O)COc2ccccc2)C(C)(C)N1`, the ED150 stood at 2.6 mg/kg.
`COc1cc(CNCCCNC(=O)C2=CC(C)(C)NC2(C)C)ccc1O` gave an ED150 of 0.47 mg/kg.
As to `COc1ccccc1CNCCCNC(=O)C1=CC(C)(C)NC1(C)C.Cl`, the ED150 worked out at 1.6 mg/kg.
Regarding `CC1(C)C=C(C(=O)NCCCNCc2ccc(Oc3ccccc3)cc2)C(C)(C)N1`, the ED150 was 1.3 mg/kg.
Still for that read-out and setting: for `C=CCc1ccc(OC(C)C(=O)NCCNC(=O)C2=CC(C)(C)NC2(C)C)c(OC)c1` (configuration not stated) the value was 2.8 mg/kg; for `C=CCc1ccc(OCC(=O)NCCNC(=O)C2=CC(C)(C)NC2(C)C)c(OC)c1`, 6.3 mg/kg; for `CC1(C)C=C(C(=O)NCC(O)CNC(=O)c2cccs2)C(C)(C)N1` (configuration not stated), 6.7 mg/kg.
`C=CCOc1ccccc1CNCCCNC(=O)C1CC(C)(C)NC1(C)C` (configuration not stated) registered an ED150 of 2.1 mg/kg.
In turn, `C/C=C/c1ccc(OCC(=O)NCC(C)(C)CNC(=O)C2=CC(C)(C)NC2(C)C)c(OC)c1` had an ED150 of 3.9 mg/kg.
The compound `C=CCOc1ccc(CNCCCNC(=O)C2=CC(C)(C)NC2(C)C)cc1` displayed an ED150 of 2.9 mg/kg.
On the same count and under the same terms, in the case of `CC1(C)C=C(C(=O)NCCCNCc2ccc(C(F)(F)F)cc2)C(C)(C)N1` it was 4.8 mg/kg; in that of `COc1cccc(CNCCCNC(=O)C2=CC(C)(C)NC2(C)C)c1O`, 3.4 mg/kg.
In the case of `CC1(C)C=C(C(=O)NCCCNCc2cccc(OCc3ccccc3)c2)C(C)(C)N1`, the ED150 is 0.74 mg/kg.
Compound `Cc1cccc(C)c1NC(=O)C(C)NCCCNC(=O)C1=CC(C)(C)NC1(C)C` (configuration not stated) displayed an ED150 of 1.3 mg/kg.
On to `COc1cccc(CNCCCNC(=O)C2=CC(C)(C)NC2(C)C)c1OCc1ccccc1`, for which the ED150 came to 0.21 mg/kg.

Another data set relates to Rattus norvegicus. The experiment in a line: Tested for incidence of arrhythmias in rats after a intravenal administration of 2 mg/kg expressed as no. of positive cases out of no. of tested cases (10). In kind it is functional.
Conditions: not given
Turning to `C=CCc1cc(C)ccc1OCC(=O)NCCNC(=O)C1=CC(C)(C)NC1(C)C`, the “No. of positive cases” value came out at 3.
Consider `C=CCc1cc(C)ccc1OCC(=O)NCCCNC(=O)C1=CC(C)(C)NC1(C)C`, for which the “No. of positive cases” value came to 8.
Same read-out and setting: in the case of `COc1cc(CNCCCNC(=O)C2=CC(C)(C)NC2(C)C)ccc1O` it was 10; in that of `C=CCc1ccc(OC(C)C(=O)NCCNC(=O)C2=CC(C)(C)NC2(C)C)c(OC)c1` (configuration not stated), 7; in that of `CC1(C)C=C(C(=O)NCCCNCc2ccccc2OCC(N)=O)C(C)(C)N1`, 1.
Still for that read-out and setting: for `C=CCOc1ccccc1CNCCCNC(=O)C1CC(C)(C)NC1(C)C` (configuration not stated) the value was 10; for `CC1(C)C=C(C(=O)NCCCNCc2cccc(OCc3ccccc3)c2)C(C)(C)N1`, 10.

The term LD50 denotes the dose at which mortality reaches 50%. A low value points to a more toxic substance.

The record behind these values is ChEMBL document CHEMBL1123299, “New antiarrhythmic agents. 2,2,5,5-Tetramethyl-3-pyrroline-3-carboxamides and 2,2,5,5-tetramethylpyrrolidine-3-carboxamindes” (J Med Chem, 1986).
